Experimental data published in US9585854B2, “N-acetyl-L-cysteine for use in in vitro fertilization” (IASOMAI AB, priority 2012, dated 2017).

Experiments:
uterine contractions = assay: clinical case: intravenous NAC prior to embryo transfer; assay type: in vivo, human; conditions: patient, NAC 50 mg/kg intravenous infusion 60 min
Description: The very first case of clinical application of NAC prior to embryo transfer was recently documented. NAC was administered in a concentration of 50 mg/kg to a patient who had previously undergone five embryo transfers involving a total number of 8 good-quality embryos. Immediately before embryo transfer, the presence of increased uterine contractile activity was confirmed by ultrasound. NAC 50 mg/kg body weight was administered in intravenous infusion for 60 min. Embryo transfer was carried out 60 min from the end of the 60 min NAC 50 mg/kg body weight administration. Both before connecting the infusion and directly before embryo transfer, a transvaginal sagittal scan recording was performed.

[1] = system: cancer cells of epithelial origin; conditions: cited from earlier work
[2] = system: Isolated uteri from virgin Wistar rats; assay: isolated organ bath study of uterine contractions; parameters: species or system rat
Description: Animals were kept at 22° C., housed 3 per cage and fed ad libitum. Isolated uteri from virgin Wistar rats (200-280 g) in estrous, which was determined by examination of a daily vaginal smear, were used.
Protamine sulphate (PS) and NAC were dissolved in pure water.
All rats were sacrificed by cervical dislocation. The uterine horns were excised, carefully cleaned and mounted vertically in a 10 ml volume organ bath containing De Jalon's solution (NaCl 154 mM, KCl 5.6 mM, CaCl2×2H2O 0.41 mM, NaHCO 2 5.9 mM and glucose 2.8 mM), under 1 g tension, aerated with 95% oxygen and 5% carbon dioxide at 37° C. […] After 10 min increasing concentrations of PS were added until the total cessation of contractions was observed.
Myometrial tension was recorded isometrically with an organ bath and transducer.
Effects of treatments on uterine contractions were calculated as percentages for control, untreated and contracting conditions. Each data value is expressed as the mean±SEM. differences between groups were analyzed by two-way ANOVA. EC50 values were compared using one-way ANOVA

IVF = assay: NAC administration in connection with IVF treatment (clinical outcome); assay type: in vivo, human
Excerpt: To date, NAC has not been considered a drug in fertility treatment although it has been used for oral treatment of endometrioses as described in EP 2305238. In that study no conclusions about pregnancies were made. To the contrary when being treated for endometriosis it was not expected that any pregnancies could occur. […] This was one of the reasons why the present inventors started investigating whether NAC could be used in connection with IVF.
Already from the start of IVF it has been a problem that the clinical outcome in IVF treatment is low.
The composition of the present invention, comprising NAC for the treatment of IVF according to one embodiment to be administered intravenously at a dose between approximately 50 and 150 mg/kg/day.
In still another embodiment of the present invention the composition comprises NAC to be administered orally at a dose of approximately 30-45 mg/kg/day.

[3] = system: normal human epidermal keratinocytes; assay: micro array gene expression analysis (Affymetrix GeneChip); assay type: cell-based; conditions: vs untreated
Description: The present experiments were carried out to elucidate if NAC treatment influence integrin and fibronectin gene expression by gene expression analysis using the Affymetrix GeneChip platform.
A micro array based gene expression analysis of the normal human epidermal keratinocytes was performed 1 and 12 hours after addition of NAC, compared to untreated (i.e. control samples at the same time points). Data obtained from GeneChip analysis were processed using the RNA analysis approach and samples were normalized to their corresponding controls. Filtering was done based on two criteria (p-value <0.1 and >1.5 fold up- or >0.5 down-regulation) for each time point. The labelling and hybridisation was done in duplicate.

embryo implantation = embryo implantation in oxytocin-treated mice; assay type: in vivo; conditions: oxytocin-treated mice
Excerpt: Indeed, in mice, NAC was confirmed to support embryo implantation. In the animal model, embryo implantation rate was decreased when the mice were given oxytocin.
In mice, NAC was confirmed to support embryo implantation. In the animal model, embryo implantation rate was decreased when the mice were given oxytocin.

[4] = thiol residue easily oxidized by oxygen, light and other radiations; cited from earlier work
1-cell rabbit embryos = assay: rabbit embryo bioassay (embryotoxicity)
Description: The eventual occurrence of NAC embryotoxicity was preliminary tested.
To verify the embryotoxicity of NAC the application of two embryotoxicity techniques—rabbit embryo bioassay and human sperm motility bioassay—were used.

Structure (SMILES): CC(=O)N[C@@H](CS)C(=O)O [NAC, N-acetyl-L-cysteine]
- amplitude of uterine contractions (uterine contractions): apparent decrease in their amplitude
- uterine contractions directly before embryo transfer (uterine contractions; from 10 contractions per 3 min before infusion, transvaginal scan): five
- effect on proliferation of cancer cells of epithelial origin ([1]; Cell Death and Differentiation 2005): marked antiproliferative effect
- cell-cell and cell-substratum adhesion complexes ([1]; NAC-treated cancer cells): considerable increase
- effect of pre-treatment on PS-induced relaxation ([2]; NAC pre-treatment 1 μg/ml, spontaneously active uteri): increased PS-induced relaxation
- effect of pre-treatment on PS-induced relaxation ([2]; calcium ion-induced uterine contractions): modulated PS-induced relaxation
- live births (IVF; NAC preferably a few days prior to IVF treatment): higher percentage of live births
- effectiveness in IVF (IVF; intravenous, lower limit approximately 50 mg/kg/day): effective in IVF
- IVF outcome (IVF; one person who had taken NAC orally for endometriosis, two previous IVF trials failed): successful IVF treatment
- effect in connection with IVF (IVF; oral, approximately 30-45 mg/kg/day): give effect in connection with IVF
- integrin alpha 2 gene expression ([3]; 1 hr after NAC treatment): up-regulated
- fibronectin gene expression ([3]; 12 hours after NAC): upregulated
- implantation rates (embryo implantation): dose-dependently restored
- stability [4]: not a stable molecule
- percentage of hatched rabbit blastocysts (1-cell rabbit embryos): not to decrease the percentage of hatched rabbit blastocysts
- embryotoxic effect (1-cell rabbit embryos; concentrations up to 50-fold therapeutic blood concentrations): failed to detect an embryotoxic effect
